The values that follow come from patent EP0521310A2, “Solid dispersion tablets containing 1,4-dihydropyridine derivatives and process for the preparation thereof” (FUJIREBIO Inc., priority 1991, dated 1993).

SMILES strings stand for the structures.

The data set can be described thus: thermal analysis (DSC) of solid dispersions, conversion to amorphous form. Type of data set: physicochemical. The procedure:
HPC and FRC8653, in the propotion of 1, 2, 3, 4 or 5 parts by weight of HPC based on one part by weight of FRC8653, were added to the mixed solvent of methanol/dichloromethane and dissolved, followed by removal of the solvent and drying. The samples obtained were subjected to thermal analysis (DSC).
Both HP55 (Shin-Etsu Chemical Co.) and FRC8653, in the proportion of 1, 2, 3, 4 or 5 parts by weight of HP55 based on one part by weight of FRC8653, were added to the mixed solvent of methanol/dichloromethane and dissolved, followed by removal of the solvent and drying in order to subject to thermal analysis (DSC). The amount of HP55 necessary to convert the FRC8653 into its amorphous form was 2 parts by weight or more per one part by weight of FRC8653.

Regarding `COCCOC(=O)C1=C(C)NC(C)=C(C(=O)OC/C=C/c2ccccc2)C1c1cccc([N+](=O)[O-])c1` (racemic) [FRC8653, 2-methoxyethyl (E)-3-phenyl-2-propen-1-yl (+/-)-1,4-dihydro-2,6-dimethyl-4-(3-nitrophenyl)-3,5-pyridinedicarboxylate], the “amount of HPC required to convert FRC8653 into its amorphous form” value (Fig. 3) was ≥ 4 parts by weight per one part b. The “amount of HP55 necessary to convert the FRC8653 into its amorphous form” value (Fig. 6) was ≥ 2 parts by weight per one part b.
